The source of these data is publication PMC11478076, “Synthetic Routes to 2-aryl-1H-pyrrolo[2,3-b]pyridin-4-amines: Cross-Coupling and Challenges in SEM-Deprotection” (Molecules, 2024).

Several values for one entry are separate records, joined by “and”; a condition that tells them apart may be missing. Identical values can stand only once. Like-named read-outs stand apart in the source and are kept apart here.

As a reminder, the melting point is the temperature, or range, at which the solid turns liquid. By IC50 is commonly meant the concentration at which inhibition is half-maximal.

In series [1] the target is T1, CSF1R (Homo sapiens, UniProt P07333). Description: CSF1R enzymatic inhibitory assay, LANCE Ultra TR-FRET (Perkin Elmer). It is filed as biochemical. As for the experimental part: (§1) CSF1R enzymatic inhibitory assay
T1 sequence (P07333 20-972): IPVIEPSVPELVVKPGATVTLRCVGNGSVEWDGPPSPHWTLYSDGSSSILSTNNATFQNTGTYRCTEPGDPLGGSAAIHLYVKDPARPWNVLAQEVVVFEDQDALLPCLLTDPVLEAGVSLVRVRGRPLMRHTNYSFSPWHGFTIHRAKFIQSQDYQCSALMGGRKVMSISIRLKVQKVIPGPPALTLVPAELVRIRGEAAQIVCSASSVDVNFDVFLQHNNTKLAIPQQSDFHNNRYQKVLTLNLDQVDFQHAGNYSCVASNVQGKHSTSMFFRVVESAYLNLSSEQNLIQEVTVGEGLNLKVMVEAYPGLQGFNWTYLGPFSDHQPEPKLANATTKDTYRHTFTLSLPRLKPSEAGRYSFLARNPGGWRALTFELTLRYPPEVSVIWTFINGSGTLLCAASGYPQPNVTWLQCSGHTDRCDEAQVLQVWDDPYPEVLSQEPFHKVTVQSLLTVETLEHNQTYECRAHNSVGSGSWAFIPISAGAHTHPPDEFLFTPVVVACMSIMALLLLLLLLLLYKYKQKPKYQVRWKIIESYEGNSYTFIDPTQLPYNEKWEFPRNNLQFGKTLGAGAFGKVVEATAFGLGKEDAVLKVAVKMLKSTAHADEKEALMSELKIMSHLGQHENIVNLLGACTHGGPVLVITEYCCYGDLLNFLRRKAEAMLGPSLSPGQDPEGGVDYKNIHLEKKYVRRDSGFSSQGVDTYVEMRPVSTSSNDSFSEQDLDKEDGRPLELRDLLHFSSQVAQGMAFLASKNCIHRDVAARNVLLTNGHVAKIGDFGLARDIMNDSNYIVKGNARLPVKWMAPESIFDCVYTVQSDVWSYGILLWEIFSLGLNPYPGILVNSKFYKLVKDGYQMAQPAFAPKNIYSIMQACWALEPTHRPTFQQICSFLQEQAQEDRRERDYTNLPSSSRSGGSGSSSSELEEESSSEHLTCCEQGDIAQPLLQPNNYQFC
(§2) The compounds were supplied in a 10 mM DMSO solution, and enzymatic CSF1R inhibition potency was determined by Invitrogen (ThermoFisher) using their Z’-LYTE® assay technology.[11] The assay is based on fluorescence resonance energy transfer (FRET). In the primary reaction, the kinase transfers the gamma-phosphate of ATP to a single tyrosine residue in a synthetic FRET-peptide. In the secondary reaction, a site-specific protease recognizes and cleaves non-phosphorylated FRET-peptides. Thus, phosphorylation of FRET-peptides suppresses cleavage by the development reagent. Cleavage disrupts FRET between the donor (i.e. coumarin) and acceptor (i.e., fluorescein) fluorophores on the FRET-peptide, whereas uncleaved, phosphorylated FRET-peptides maintain FRET. […]
(§3) The TR-FRET-based LANCE Ultra assay (Perkin Elmer) was used to determine IC50 values for various CSF1R inhibitors. Kinase activity and inhibition in this assay was measured as […]
recommended by the manufacturer. […] Subsequently, phosphorylation or inhibition was detected by addition of specific europium (Eu)-labelled anti-phospho-antibodies (2 nM), which upon binding to the phospho-peptide give rise to a FRET signal. The FRET signal was recorded in a time-resolved manner in a Perkin Elmer EnVision reader. […] All assay data was analysed with the Quattro Workflow software package from Quattro Research.
(Time-resolved FRET reads energy transfer from a long-lived donor to a nearby acceptor.)

The target of series [2] is T1, CSF1R. Nature of the series: CSF1R enzymatic inhibitory assay, Z'-LYTE (Invitrogen/ThermoFisher). Conditions: ATP level equal to KM 10 μM, two titration curves (20 data points). It counts as biochemical. On the procedure: Figure 2 CSF1R inhibition (IC50 curves) for the 7-azaindole 3c (red squares), pyrrolopyrimidine 1 (blue circles) and thienopyrimidine 2 (green triangles). The solid lines are regression curves generated from 20 data points each. The assay was performed at ThermoFisher (Invitrogen, San Diego, CA, USA) using the Z-lyte technology; ATP level was equal to KM.
as §1, §2, §3

In series [3] the target is T1, CSF1R. Set-up: method as in PMID 38141285. The following applies: cited from earlier work.
In series [4] the target is T1, CSF1R. Also noted: method as in Aarhus et al. [19]. The following applies: LANCE Ultra assay; ATP level 25 μM; previously reported data ref Aarhus et al. [19]; cited from earlier work.

For the compound `CN(Cc1ccccc1)c1ccnc2[nH]c(-c3ccc(CO)cc3)cc12` [3c, (4-(4-(Benzyl(methyl)amino)-1H-pyrrolo[2,3-b]pyridin-2-yl)phenyl)methanol], the melting point lay within 200 to 201 °C. For the same compound, at CSF1R [1] (CSF1R assay with higher ATP concentration (25 μM)), the “fold lower CSF1R activity compared to the corresponding pyrrolopyrimidine (reference inhibitor 1)” value was 20 fold. In addition, the IC50 against CSF1R [1] (LANCE Ultra assay, ATP level 25 μM) stood at 105 nM. Further, on CSF1R [2], the IC50 is 3 nM and 3.1 nM.
In turn, `CN(Cc1ccccc1)c1ccnc2[nH]c(-c3ccccc3)cc12` [3a, N-Benzyl-N-methyl-2-phenyl-1H-pyrrolo-[2,3-b]pyridin-4-amine] displayed a melting point of 191 to 193 °C.
Same read-out and setting: for `COc1ccc(-c2[nH]c3nccc4c3c2Cc2ccccc2CN4C)cc1` [16b, 1-(4-Methoxyphenyl)-6-methyl-2,6,7,12-tetrahydro-2,3,6-triazabenzo[6,7]cycloocta[1,2,3-cd]indene] the value was 287 to 289 °C (dec.).
As for `CN(Cc1ccccc1)c1ncnc2sc(-c3ccc(CO)cc3)cc12` [compound 2], the “CSF1R inhibitory activity in enzymatic studies (in words)” value on CSF1R [3] is “far less active”. Further, the IC50 on CSF1R [4] is 450 nM.
